According to PubChem BioAssay (NCI):
Values joined by “and” are separate entries in the source; they are usually repeats but may differ in a detail not shown here. Identical values can stand only once.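 Values below derive from 48-hour exposures of cells grown in 96-well plates, with endpoints linearly interpolated between the two concentrations bracketing the appropriate inhibition level. The concentration for 50% growth inhibition is given as GI50. The concentration for full growth arrest is given as TGI.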

Columns and labels:
Test in all cases: inhibition of tumour cell growth, NCI panel, 48 h
[1] = system: CAKI-1 renal
[2] = system: CCRF-CEM leukemia
[3] = system: HL-60(TB) leukemia
[4] = system: RXF 393 renal
[5] = system: SF-295 CNS
[6] = system: SNB-75 CNS
[7] = system: UACC-257 melanoma
[8] = system: HS 578T breast
[9] = system: NCI/ADR-RES ovarian
[10] = system: MALME-3M melanoma

SMILES	TGI [1]	TGI [2]	TGI [3]	TGI [4]	TGI [5]	TGI [6]	TGI [7]	GI50 [1]	GI50 [3]	GI50 [8]	TGI [8]	GI50 [9]	TGI [9]	GI50 [4]	GI50 [5]	GI50 [7]	GI50 [2]	GI50 [10]	TGI [10]	GI50 [6]
CCOC(=O)C1=C(C)N(Cc2ccccc2)C(=O)C1CC#N (stereo not given)	> 100 µM	> 100 µM	94.7 µM	> 100 µM	> 100 µM	> 100 µM	> 100 µM	–	–	–	–	–	–	–	–	–	–	–	–	–
CCN(CC)CCOc1ccc(/C=C2\C[C@H]3[C@H]4CC=C5C[C@@H](O)CC[C@]5(C)[C@H]4CC[C@]3(C)[C@H]2O)cc1OC	15.9 µM	–	22.5 µM	39.3 µM	25.4 µM	–	18.1 µM	7.14 µM	10.4 µM	8.66 µM	18.7 µM	9.98 µM	22 µM	13.4 µM	10400 nM	8.42 µM	–	–	–	–
C=C(C)C1CC=C(C)CC1 (stereo not given)	> 100 µM and 1680 µM	> 100 µM and 1670 µM	> 100 µM and 1720 µM	> 100 µM and 1730 µM	> 100 µM and 1630 µM	> 100 µM and 1710 µM	> 100 µM and 1850 µM	> 100 µM	> 100 µM	–	–	–	–	> 100 µM	> 100000 nM	> 100 µM	> 100 µM	> 100 µM	> 100 µM and 1690 µM	> 100 µM
COC(=O)NC(=Nc1ccc(Oc2ccccc2)cc1NC=O)NC(=O)OC	–	> 100 µM	0.707 µM	–	> 100 µM	> 100 µM	> 100 µM	–	–	–	–	–	–	–	–	–	–	–	> 100 µM	–
NCCCn1c2c(c3ccc([N+](=O)[O-])cc3c1=O)C(=O)c1cc(-c3ccccc3)ccc1-2	3.21 µM	0.712 µM	1.3 µM	2.79 µM	3.45 µM	1.87 µM	3.46 µM	1.67 µM	0.5 µM	–	–	1.84 µM	3.76 µM	1.36 µM	1790 nM	1.85 µM	0.238 µM	–	–	0.579 µM
O=C(CC1(O)C(=O)Nc2ccccc21)c1ccc(F)cc1 (stereo not given)	> 100 µM	–	> 100 µM	> 100 µM	> 100 µM	> 100 µM	> 100 µM	–	–	–	–	–	–	–	–	–	–	–	> 100 µM	–
NCCCCCCCCCCCn1c2c(c3ccccc3c1=O)C(=O)c1ccccc1-2	63.5 µM	–	20.4 µM	82.3 µM	7.9 µM	7.68 µM	63.7 µM	8.62 µM	6.28 µM	22.4 µM	52.6 µM	3.2 µM	17.6 µM	24.3 µM	2700 nM	27.7 µM	–	16.7 µM	53.6 µM	2.95 µM
C1COCCOCCOCCOCCOCCO1.[Cl][Sn]([Cl])([c]1ccccc1)[c]1ccccc1	1.75 µM	–	7.55 µM	4.06 µM	30 µM	19.6 µM	4.63 µM	0.478 µM	2.64 µM	–	–	–	–	2.21 µM	16100 nM	2.08 µM	–	1.99 µM	3.82 µM	5.19 µM
C/C=C(/CCC1NCCC2c3ccccc3NC12)[Si](C)(C)C (stereo not given)	22.8 µM	57 µM	4.36 µM	19.2 µM	29.1 µM	21.4 µM	14.2 µM	–	–	–	–	–	–	–	–	–	–	–	–	–
NC1CCC(Nc2nc(NCc3cc(Cl)ccc3O)c3ncn(C4CCCC4)c3n2)CC1 (stereo not given)	1.57 µM	0.532 µM	0.388 µM	0.277 µM	0.542 µM	0.33 µM	0.387 µM	0.295 µM	0.165 µM	0.222 µM	0.893 µM	0.156 µM	0.316 µM	0.12 µM	159 nM	0.18 µM	0.127 µM	–	–	0.114 µM
CSc1nc2c(nc(N)n2C2OC(COC(C)=O)C(OC(C)=O)C(OC(C)=O)C2OC(C)=O)c(=O)n1C (stereo not given)	> 100 µM	> 100 µM	> 100 µM	> 100 µM	> 100 µM	> 100 µM	> 100 µM	–	–	–	–	–	–	–	–	–	–	–	> 100 µM	–
CC(=O)[CH-]C(=O)c1ccccc1.CC(=O)[CH-]C(=O)c1ccccc1.CC[C@H](/C=C/C(C)[C@H]1CCC2[C@@H]3CC=C4C[C@@H]([O-])CC[C@]4(C)C3CC[C@@]21C)C(C)C.CC[O-].[Ti+4] (stereo not given in full)	> 100 µM	> 100 µM	> 100 µM	> 100 µM	> 100 µM	> 100 µM	> 100 µM	> 100 µM	> 100 µM	–	–	–	–	84.4 µM	> 100000 nM	> 100 µM	61.4 µM	> 100 µM	> 100 µM	22.4 µM
Cn1c(=O)c2ccc(-c3ccc(Br)cc3)nc2n(C)c1=O	–	> 100 µM	> 100 µM	–	> 100 µM	73.5 µM	> 100 µM	–	–	–	–	–	–	–	–	–	–	–	> 100 µM	–
CC(=O)[CH-]C(=O)c1ccccc1.CC(=O)[CH-]C(=O)c1ccccc1.CC1(C)OCC(C2OC3OC(C)(C)OC3C2[O-])O1.CC1(C)OCC(C2OC3OC(C)(C)OC3C2[O-])O1.[Ti+4] (stereo not given)	79.7 µM	39.8 µM	–	25.3 µM	30.8 µM	28.5 µM	–	29.9 µM	–	–	–	–	–	12.5 µM	13800 nM	–	3.49 µM	10.5 µM	28.5 µM	11 µM
COc1cccc(NC(=O)C(C)(C)C)c1SSc1c(NC(=O)C(C)(C)C)cccc1OC	> 60.3 µM	> 89.5 µM	> 73.1 µM	35.3 µM	> 100 µM	> 74.4 µM	51.4 µM	–	–	–	–	–	–	–	–	–	–	–	> 63.4 µM	–
O=c1c2c(c3ccccc3n1-c1ccccc1)NC(=S)NC2c1ccc(Cl)cc1 (stereo not given)	27.1 µM	> 100 µM	45 µM	25.5 µM	7.16 µM	22.6 µM	> 100 µM	3.16 µM	3.6 µM	1.85 µM	> 100 µM	10.1 µM	> 100 µM	5.34 µM	1340 nM	5.9 µM	3.79 µM	–	–	3.54 µM
O=C(NNc1ccc(F)cc1)C1CCC(CNS(=O)(=O)c2ccc(Cl)c(Cl)c2)CC1 (stereo not given)	28.1 µM	> 50 µM	9.57 µM	–	45.5 µM	–	28.5 µM	2.87 µM	1.82 µM	10.5 µM	42.4 µM	8.79 µM	31.5 µM	–	2160 nM	7.91 µM	16.1 µM	–	–	–
